Source: publication PMC3025922 (BMC Biology, 2010)
Like-named read-outs stand apart in the source and are kept apart here.

Test system: nuclear p27 in LNCaP-S14 cells
Type: cell-based, human
[1] = primary screening, nuclear p27 in LNCaP-S14 cells
[2] = primary screening, S = strong, M = medium, W = weak by Z score

Compound | Z score (aver) [1] | Clasf [2] | Clasf | Z score (aver)
CCCCOc1ccc(C(=O)CCN2CCCCC2)cc1.Cl [1568F10] | 2.33 | W (weak (Z score 2-3) | – | –
Clc1ccccc1C(c1ccccc1)(c1ccccc1)n1ccnc1 [1568F16] | – | – | W (key: S: strong (Z score > 5); M: medium (Z score 3-5); W: weak (Z score 2-3) | 2.26
CN(C)CCCN1c2ccccc2CCc2ccc(Cl)cc21.Cl [1568F20] | 2.49 | W (weak (Z score 2-3) | – | –
O=C(Nc1ccc([N+](=O)[O-])cc1Cl)c1cc(Cl)ccc1O [1568G21] | 3.77 | M (medium (Z score 3-5)) | – | –
CCC1(O)C(=O)OCc2c1cc1n(c2=O)Cc2cc3ccccc3nc2-1 (stereo not shown) [1568H21] | 4.82 | M (medium (Z score 3-5)) | – | –
OCCN1CCN(CCCN2c3ccccc3Sc3ccc(Cl)cc32)CC1 [1568I12] | 3.13 | M (medium (Z score 3-5)) | – | –
Cl.OC(c1cc(C(F)(F)F)nc2c(C(F)(F)F)cccc12)C1CCCCN1 (stereo not shown) [1568I14] | 8.87 | S (strong (Z score > 5)) | – | –
CN1CCCN(C(c2ccccc2)c2ccc(Cl)cc2)CC1.Cl (stereo not shown) [1568J08] | 2.49 | W (weak (Z score 2-3) | – | –
C1CCC(C(CC2CCCCN2)C2CCCCC2)CC1.O=C(O)C=CC(=O)O (stereo not shown) [1568J14] | 7.22 | S (strong (Z score > 5)) | – | –
O=C(CCCN1CCC2(CC1)C(=O)NCN2c1ccccc1)c1ccc(F)cc1 [1568J18] | 4.37 | M (medium (Z score 3-5)) | – | –
COC(=O)Nc1nc2cc(Sc3ccccc3)ccc2[nH]1 [1568J21] | 3.73 | M (medium (Z score 3-5)) | – | –
COc1ccc(CCN2CCC(Nc3nc4ccccc4n3Cc3ccc(F)cc3)CC2)cc1 [1568K14] | – | – | S (key: S: strong (Z score > 5); M: medium (Z score 3-5); W: weak (Z score 2-3) | 8.76
CC#CC1(O)CCC2C3CCC4=CC(=O)CCC4=C3C(c3ccc(N(C)C)cc3)CC21C (stereo not shown) [1568L20] | 3.22 | M (medium (Z score 3-5)) | – | –
N=C(NCCCCCCNC(=N)NC(=N)Nc1ccc(Cl)cc1)NC(=N)Nc1ccc(Cl)cc1 [1568M08] | 6.26 | S (strong (Z score > 5)) | – | –
CCC(=C(c1ccccc1)c1ccc(OCCN(C)C)cc1)c1ccccc1.O=C(O)CC(O)(CC(=O)O)C(=O)O [1568M14] | 2.56 | W (weak (Z score 2-3) | – | –
Clc1ccc(COC(Cn2ccnc2)c2ccc(Cl)cc2Cl)c(Cl)c1 (stereo not shown) [1568M15] | – | – | W (key: S: strong (Z score > 5); M: medium (Z score 3-5); W: weak (Z score 2-3) | 2.54
Clc1ccc(COC(Cn2ccnc2)c2ccc(Cl)cc2Cl)cc1.O=[N+]([O-])O (stereo not shown) [1568N10] | 2.46 | W (weak (Z score 2-3) | – | –
O=c1[nH]c2ccccc2n1C1CCN(CCCC(c2ccc(F)cc2)c2ccc(F)cc2)CC1 [1568N18] | 2.26 | W (weak (Z score 2-3) | – | –
CSc1ccc2c(c1)N(CCC1CCCCN1C)c1ccccc1S2.Cl (stereo not shown) [1568O17] | – | – | W (key: S: strong (Z score > 5); M: medium (Z score 3-5); W: weak (Z score 2-3) | 2.51
CCN(CC)CCCC(C)Nc1c2ccc(Cl)cc2nc2ccc(OC)cc12 (stereo not shown) [1568P18] | 6.13 | S (strong (Z score > 5)) | – | –
CCCCCCC[N+](CC)(CC)CCCCc1ccc(Cl)cc1.Cc1ccc(S(=O)(=O)[O-])cc1 [1568P20] | 9.16 | S (strong (Z score > 5)) | – | –

Compound | Z score (aver) [1] | Clasf [2] | Clasf | Z score (aver)
Cl.OCCN1CCN(CCCN2c3ccccc3Sc3ccc(C(F)(F)F)cc32)CC1 [1568P22] | 2.76 | W (weak (Z score 2-3) | – | –
CN(C)CCC=C1c2ccccc2Sc2ccc(Cl)cc21.Cl [1569E17] | 3.86 | M (medium (Z score 3-5)) | – | –
COc1ccc(Cc2nccc3cc(OC)c(OC)cc23)cc1OC.Cl [1569F08] | 2.60 | W (weak (Z score 2-3) | – | –
C=C(NC(=O)C(=C)NC(=O)c1csc(C2=NC3c4csc(n4)C4NC(=O)c5csc(n5)C(C(C)(O)C(C)O)NC(=O)C5CSC(=N5)C(=CC)NC(=O)C(C(C)O)NC(=O)c5csc(n5)C3(CC2)NC(=O)C(C)NC(=O)C(=C)NC(=O)C(C)NC(=O)C(C(C)CC)NC2C=Cc3c(C(C)O)cc(nc3C2O)C(=O)OC4C)n1)C(N)=O (stereo not shown) [1569J05] | 5.60 | S (strong (Z score > 5)) | – | –
CSc1ccc2c(c1)C(N1CCN(C)CC1)Cc1ccccc1S2.O=C(O)C=CC(=O)O (stereo not shown) [1569K11] | 4.55 | M (medium (Z score 3-5)) | – | –
C=C1c2c(Cl)ccc(O)c2C(=O)C2=C(O)C3(O)C(=O)C(C(N)=O)=C(O)C(N(C)C)C3C(O)C12.O=C(O)c1cc(S(=O)(=O)O)ccc1O (stereo not shown) [1569K14] | 2.51 | W (weak (Z score 2-3) | – | –
CC1=CC(=O)c2ccccc2C1=O [1569K20] | 6.94 | S (strong (Z score > 5)) | – | –
Cc1c2ccncc2c(C)c2c1[nH]c1ccccc12 [1569L10] | 2.59 | W (weak (Z score 2-3) | – | –
Cl.Fc1ccc(C(OCCN2CCN(CCCc3ccccc3)CC2)c2ccc(F)cc2)cc1 [1569M13] | 5.81 | S (strong (Z score > 5)) | – | –
Cc1cc(N)c2ccccc2[n+]1CCCCCCCCCC[n+]1c(C)cc(N)c2ccccc21.Cl [1569M17] | 9.20 | S (strong (Z score > 5)) | – | –
C=C1C(=O)OC2C1CCC(C)=CCCC1(C)OC21 (stereo not shown) [1569N21] | 8.12 | S (strong (Z score > 5)) | – | –
COc1cc(C2c3cc4c(cc3C(OC3OC5COC(C)OC5C(O)C3O)C3COC(=O)C23)OCO4)cc(OC)c1O (stereo not shown) [1569O13] | 6.74 | S (strong (Z score > 5)) | – | –
COc1ccc(CC(N)C(=O)NC2C(CO)OC(n3cnc4c(N(C)C)ncnc43)C2O)cc1.Cl (stereo not shown) [1569O22] | 7.86 | S (strong (Z score > 5)) | – | –
CC1OC(OC2CCC3(C=O)C4CCC5(C)C(C6=CC(=O)OC6)CCC5(O)C4CCC3(O)C2)CC(O)C1O (stereo not shown) [1570A13] | 2.74 | W (weak (Z score 2-3) | – | –
CC12CCC(O)CC1CCC1C2CC(O)C2(C)C(C3=CC(=O)OC3)CCC12O (stereo not shown) [1570B08] | 2.80 | W (weak (Z score 2-3) | – | –
CN(C)CCN(Cc1ccc(Cl)cc1)c1ccccn1.Cl [1570B15] | 8.42 | S (strong (Z score > 5)) | – | –
CCC1(C2OC(C3OC(O)(CO)C(C)CC3C)CC2C)CCC(C2(C)CCC3(CC(O)C(C)C(C(C)C(OC)C(C)C(=O)[O-])O3)O2)O1.[Na+] (stereo not shown) [1570E18] | 9.26 | S (strong (Z score > 5)) | – | –
CCC(C(=O)C(C)C(O)C(C)CCc1ccc(C)c(O)c1C(=O)[O-])C1OC(CC)(C2CCC(O)(CC)C(C)O2)CC1C.[Na+] (stereo not shown) [1570F17] | 8.04 | S (strong (Z score > 5)) | – | –
Cc1cc2c(C(C)C)c(O)c(O)c(C=O)c2c(O)c1-c1c(C)cc2c(C(C)C)c(O)c(O)c(C=O)c2c1O [1570G15] | 3.54 | M (medium (Z score 3-5)) | – | –
NCC1OC(OC2C(N)CC(N)C(O)C2OC2OC(CO)C(O)C2O)C(N)C(O)C1O.O=S(=O)(O)O (stereo not shown) [1570G18] | 6.58 | S (strong (Z score > 5)) | – | –
